In patent publication US20250214991A1 (Oncopia Therapeutics, Inc. d/b/a/ SK Life Science Labs, priority 2022, published 2025):

What was measured:
IKZF1 = IKZF1 (Homo sapiens (Human), UniProt Q13422+Q96SW2); experiment: In vitro IKZF1 HiBit Assay (HEK293T Flp-in-HiBiT-IKZF1 stable cell line); format: cell-based; settings: HEK293T Flp-in-HiBiT-IKZF1 stable cell line, 6 hrs incubation; for DC50: read-out: IKZF1 HiBit DC50; for Dmax: HEK-293T, read-out: IKZF1 HiBit Dmax (%)
Procedure, shortened: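 Degradation was measured as loss of luminescence from the HiBiT-IKZF1 tag after 6 h compound treatment, with 0.1% final DMSO, in stable HEK293T Flp-in cells. Values were normalized to DMSO, giving the 50% degradation concentration and the maximal degradation range.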

IKZF2 = IKZF2 (Homo sapiens (Human), UniProt Q96SW2+Q9UKS7); experiment: In vitro IKZF2 HiBit Assay (HEK293T Flp-in-HiBiT cells); format: cell-based; settings: HEK293T Flp-in-HiBiT cells, 6 hrs incubation; for DC50: read-out: IKZF2 HiBit DC50; for Dmax: HEK-293T, read-out: IKZF2 HiBit Dmax (%)
Chain of IKZF2 (Q9UKS7 whole entry): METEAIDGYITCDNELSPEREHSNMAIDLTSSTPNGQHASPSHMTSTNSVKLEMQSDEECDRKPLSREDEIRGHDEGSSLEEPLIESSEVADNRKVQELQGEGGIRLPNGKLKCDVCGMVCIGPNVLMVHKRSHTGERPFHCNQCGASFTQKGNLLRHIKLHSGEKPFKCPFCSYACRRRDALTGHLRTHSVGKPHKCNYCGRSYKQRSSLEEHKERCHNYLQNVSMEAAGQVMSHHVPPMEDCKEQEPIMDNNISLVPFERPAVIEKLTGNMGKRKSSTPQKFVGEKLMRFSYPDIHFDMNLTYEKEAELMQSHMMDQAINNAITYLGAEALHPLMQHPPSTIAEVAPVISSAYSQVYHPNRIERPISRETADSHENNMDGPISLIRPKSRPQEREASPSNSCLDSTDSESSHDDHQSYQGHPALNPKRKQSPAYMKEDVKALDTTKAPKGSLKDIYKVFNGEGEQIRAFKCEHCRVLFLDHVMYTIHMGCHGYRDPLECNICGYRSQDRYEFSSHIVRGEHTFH
Chain of IKZF2 (Q96SW2 whole entry): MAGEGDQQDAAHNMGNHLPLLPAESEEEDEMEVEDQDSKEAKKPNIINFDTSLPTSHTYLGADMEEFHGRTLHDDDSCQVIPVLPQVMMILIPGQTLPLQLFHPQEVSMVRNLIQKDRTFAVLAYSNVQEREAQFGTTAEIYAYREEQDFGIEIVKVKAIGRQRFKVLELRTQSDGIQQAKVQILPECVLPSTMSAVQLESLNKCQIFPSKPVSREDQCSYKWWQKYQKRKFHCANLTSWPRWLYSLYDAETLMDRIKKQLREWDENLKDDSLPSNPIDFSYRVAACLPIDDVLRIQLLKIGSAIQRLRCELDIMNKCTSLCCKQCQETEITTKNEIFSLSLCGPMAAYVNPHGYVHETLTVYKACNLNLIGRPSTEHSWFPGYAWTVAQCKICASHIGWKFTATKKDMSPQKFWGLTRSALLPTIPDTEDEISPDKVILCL
Chain of IKZF2 (Q16531 2-1140 partner): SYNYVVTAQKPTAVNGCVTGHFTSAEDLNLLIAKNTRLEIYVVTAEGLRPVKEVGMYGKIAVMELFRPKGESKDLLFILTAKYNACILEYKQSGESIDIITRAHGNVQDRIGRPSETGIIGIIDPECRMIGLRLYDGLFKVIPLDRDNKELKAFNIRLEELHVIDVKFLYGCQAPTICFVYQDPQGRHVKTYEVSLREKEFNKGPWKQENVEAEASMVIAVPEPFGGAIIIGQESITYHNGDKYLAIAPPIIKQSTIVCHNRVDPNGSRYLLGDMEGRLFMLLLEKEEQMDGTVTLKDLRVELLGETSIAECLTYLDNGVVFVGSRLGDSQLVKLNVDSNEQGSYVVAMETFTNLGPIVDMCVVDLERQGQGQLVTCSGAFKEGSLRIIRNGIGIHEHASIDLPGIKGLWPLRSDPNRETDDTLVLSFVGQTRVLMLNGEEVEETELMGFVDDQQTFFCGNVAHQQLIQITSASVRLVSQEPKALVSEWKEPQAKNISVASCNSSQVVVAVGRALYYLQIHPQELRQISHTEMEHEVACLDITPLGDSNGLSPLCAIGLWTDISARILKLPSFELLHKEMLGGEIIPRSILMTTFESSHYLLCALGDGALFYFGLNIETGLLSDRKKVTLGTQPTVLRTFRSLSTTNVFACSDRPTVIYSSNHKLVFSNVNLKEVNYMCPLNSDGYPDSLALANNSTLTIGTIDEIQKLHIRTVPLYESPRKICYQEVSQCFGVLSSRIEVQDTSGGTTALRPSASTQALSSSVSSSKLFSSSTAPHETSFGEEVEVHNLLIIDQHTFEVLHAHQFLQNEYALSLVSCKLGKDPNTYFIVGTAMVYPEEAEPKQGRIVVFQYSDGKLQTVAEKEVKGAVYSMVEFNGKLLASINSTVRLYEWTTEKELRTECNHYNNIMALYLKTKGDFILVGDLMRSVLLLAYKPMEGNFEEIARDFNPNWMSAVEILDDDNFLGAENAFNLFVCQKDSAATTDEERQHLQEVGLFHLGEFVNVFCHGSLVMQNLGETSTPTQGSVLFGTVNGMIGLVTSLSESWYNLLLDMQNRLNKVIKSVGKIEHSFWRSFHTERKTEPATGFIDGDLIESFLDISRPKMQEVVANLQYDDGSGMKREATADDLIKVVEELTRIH
Procedure, shortened: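 Remaining tagged Helios was read as lytic HiBiT/LgBiT luminescence normalized to DMSO, yielding binned DC50 and Dmax values. Treatment ran 6 h, with compounds at 11 three-fold doses diluted from 1 mM and 0.1% final DMSO. The cells were HEK293T Flp-in with CRISPR knock-in of HiBiT at the IKZF2 N-terminus.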

CRBN/DDB1 = CRBN/DDB1 (Homo sapiens (Human), UniProt Q96SW2); experiment: IC50 measurements for binding to CRBN/DDB1 (HTRF); settings: His tagged CRBN+DDB, Cy5-labeled Thalidomide probe, one hour
Chain of CRBN/DDB1 (Q96SW2 whole entry, species assumed): as the sequence (Q96SW2 whole entry) above
Chain of CRBN/DDB1 (Q16531 whole entry partner, species assumed): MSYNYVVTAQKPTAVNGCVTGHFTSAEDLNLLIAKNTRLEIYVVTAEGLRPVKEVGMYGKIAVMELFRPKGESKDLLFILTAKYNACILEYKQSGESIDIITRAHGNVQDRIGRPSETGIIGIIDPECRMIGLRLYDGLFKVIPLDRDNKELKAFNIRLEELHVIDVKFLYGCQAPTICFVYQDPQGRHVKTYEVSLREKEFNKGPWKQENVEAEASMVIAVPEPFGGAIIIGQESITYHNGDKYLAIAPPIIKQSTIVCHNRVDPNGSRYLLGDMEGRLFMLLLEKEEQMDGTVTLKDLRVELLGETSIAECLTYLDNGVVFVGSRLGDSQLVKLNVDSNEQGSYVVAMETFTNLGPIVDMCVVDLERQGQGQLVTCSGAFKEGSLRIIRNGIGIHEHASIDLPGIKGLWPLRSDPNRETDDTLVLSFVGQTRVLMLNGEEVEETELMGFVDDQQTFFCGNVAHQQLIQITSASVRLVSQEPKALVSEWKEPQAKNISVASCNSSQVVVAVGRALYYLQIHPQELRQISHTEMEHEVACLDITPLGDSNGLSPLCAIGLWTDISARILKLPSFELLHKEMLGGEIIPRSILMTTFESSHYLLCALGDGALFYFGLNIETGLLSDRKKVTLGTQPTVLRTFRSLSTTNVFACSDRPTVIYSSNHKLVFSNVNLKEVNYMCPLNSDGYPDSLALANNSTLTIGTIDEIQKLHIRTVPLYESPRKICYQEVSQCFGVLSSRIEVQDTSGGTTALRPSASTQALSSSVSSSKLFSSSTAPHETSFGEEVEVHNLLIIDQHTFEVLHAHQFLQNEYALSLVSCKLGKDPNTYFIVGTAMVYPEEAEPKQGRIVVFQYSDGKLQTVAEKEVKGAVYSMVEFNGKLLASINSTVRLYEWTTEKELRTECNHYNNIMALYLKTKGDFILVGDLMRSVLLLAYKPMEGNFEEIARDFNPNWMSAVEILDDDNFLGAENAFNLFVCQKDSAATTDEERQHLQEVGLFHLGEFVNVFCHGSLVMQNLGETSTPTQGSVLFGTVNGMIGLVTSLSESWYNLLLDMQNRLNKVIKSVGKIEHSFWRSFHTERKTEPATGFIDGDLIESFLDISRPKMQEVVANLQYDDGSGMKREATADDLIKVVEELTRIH
Procedure: In vitro Assay: IC50 Measurements for binding to CRBN/DDB1 (Table E1)
The binding potency was determined using HTRF assay technology (Perkin Elmer). Compounds were serially diluted in DMSO and 0.2 μL volume was transferred to white 384-well plate. The reaction was conducted in total volume of 20 μL with addition of 2 nM His tagged CRBN+DDB−DLS7+CXU4 (Wuxi, catalogue #RP210521GA) to compounds followed by addition of 60 nM Fluorescent probe Cy5-labeled Thalidomide (Tenova Pharma, catalogue #T52461), and 0.4 nM of MAb Anti-6HIS Tb cryptate Gold (Cisbio, catalogue #61HI2TLA in the assay buffer (50 mM HEPES pH 7.5, 1 mM TCEP, 0.01% Brij-35, 50 mM NaCl, and 0.1% BSA). After one hour incubation at room temperature, the HTRF signals were read on Envision reader (Perkin Elemer). Data was analyzed using XLfit using four parameters dose response curve to determine IC50s. A: IC50<0.1 μM; B: 0.1 μM<IC50<[…]; C: 0.5 μM<IC50<1 μM; D: 1 μM<IC50<5 μM; E: 5 μM<IC50<10 μM

Chain of IKZF1 (Q13422 whole entry): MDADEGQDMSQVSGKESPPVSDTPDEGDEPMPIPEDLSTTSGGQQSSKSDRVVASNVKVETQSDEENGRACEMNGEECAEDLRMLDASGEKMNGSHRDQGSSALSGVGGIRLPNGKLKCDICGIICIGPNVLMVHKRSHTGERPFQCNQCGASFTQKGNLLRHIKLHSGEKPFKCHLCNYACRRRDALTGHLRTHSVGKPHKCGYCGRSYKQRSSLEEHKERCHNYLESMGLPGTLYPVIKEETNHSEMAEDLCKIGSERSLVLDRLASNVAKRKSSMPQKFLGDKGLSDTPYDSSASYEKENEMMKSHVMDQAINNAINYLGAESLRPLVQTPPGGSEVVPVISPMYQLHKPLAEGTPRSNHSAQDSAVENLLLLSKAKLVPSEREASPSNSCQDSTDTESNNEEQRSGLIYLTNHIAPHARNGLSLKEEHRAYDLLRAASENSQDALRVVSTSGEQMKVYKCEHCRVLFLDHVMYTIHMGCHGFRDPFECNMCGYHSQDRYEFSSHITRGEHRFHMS
Chain of IKZF1 (Q96SW2 whole entry): as the sequence (Q96SW2 whole entry) above
Chain of IKZF1 (Q16531 2-1140 partner): as the sequence (Q16531 2-1140 partner) above

Compound | DC50 (IKZF1) [nM] | Dmax (IKZF1) [%] | DC50 (IKZF2) [nM] | Dmax (IKZF2) [%] | IC50 (CRBN/DDB1) [nM]
Cn1ncc2nc(-c3ccc4c(c3)CN(C3CCC(=O)NC3=O)C4=O)cc(CN3CCCC3)c21 (stereo not shown) [Example 310, 3-(5-(1-methyl-7-(pyrrolidin-1-ylmethyl)-1H-pyrazolo[4,3-b]pyridin-5-yl)-1-oxoisoindolin-2-yl) piperidine-2,6-dione] | > 10000 | < 20 | < 1 | > 80 | 500 to 1000
Cc1cc(-c2ccc3c(c2)CN(C2CCC(=O)NC2=O)C3=O)nc2nc(CN3CCCC3)oc12 (stereo not shown) [Example 195, 3-(5-(7-methyl-2-(pyrrolidin-1-ylmethyl)oxazolo[4,5-b]pyridin-5-yl)-1-oxoisoindolin-2-yl) piperidine-2,6-dione] | > 10000 | < 20 | 10 to 100 | 60 to 80 | 1000 to 5000
N#CCn1ccc2c(CN3CCCC3)cc(-c3ccc4c(c3)CN(C3CCC(=O)NC3=O)C4=O)nc21 (stereo not shown) [Example 133, 2-(6-(2-(2,6-dioxopiperidin-3-yl)-1-oxoisoindolin-5-yl)-4-(pyrrolidin-1-ylmethyl)-1H-pyrrolo[2,3-b]pyridin-1-yl) acetonitrile] | > 10000 | < 20 | 1 to 10 | 60 to 80 | 100 to 500
O=C1CCC(N2Cc3cc(-c4cc(CN5CCC5)c5[nH]ccc5n4)ccc3C2=O)C(=O)N1 (stereo not shown) [Example 156, 3-(5-(7-(azetidin-1-ylmethyl)-1H-pyrrolo[3,2-b]pyridin-5-yl)-1-oxoisoindolin-2-yl) piperidine-2,6-dione] | 10 to 100 | 20 to 40 | 1 to 10 | > 80 | 1000 to 5000
O=C1CCC(N2Cc3cc(-c4cc(CN5CCCC5)c5[nH]ccc5n4)ccc3C2=O)C(=O)N1 (stereo not shown) [Example 76, 3-(1-oxo-5-(7-(pyrrolidin-1-ylmethyl)-1H-pyrrolo[3,2-b]pyridin-5-yl)isoindolin-2-yl) piperidine-2,6-dione] | > 10000 | 20 to 40 | < 1 | > 80 | 1000 to 5000
CN(C)C(=O)Cn1ccc2c(CN3CCCC3)cc(-c3ccc4c(c3)CN(C3CCC(=O)NC3=O)C4=O)nc21 (stereo not shown) [Example 149, 2-(6-(2-(2,6-dioxopiperidin-3-yl)-1-oxoisoindolin-5-yl)-4-(pyrrolidin-1-ylmethyl)-1H-pyrrolo[2,3-b]pyridin-1-yl)-N,N-dimethylacetamide] | > 10000 | < 20 | 100 to 1000 | 20 to 40 | 1000 to 5000
Cn1ccc2c(CN3CCC(S(C)(=O)=O)CC3)cc(-c3ccc4c(c3)CN(C3CCC(=O)NC3=O)C4=O)nc21 (stereo not shown) [Example 300, 3-(5-(1-methyl-4-((4-(methylsulfonyl)piperidin-1-yl)methyl)-1H-pyrrolo[2,3-b]pyridin-6-yl)-1-oxoisoindolin-2-yl) piperidine-2,6-dione] | > 10000 | < 20 | 10 to 100 | 60 to 80 | 1000 to 5000
COC1CCN(Cc2cc(-c3ccc4c(c3)CN(C3CCC(=O)NC3=O)C4=O)nc3c2ccn3C)CC1 (stereo not shown) [Example 102, 3-(5-(4-((4-methoxypiperidin-1-yl)methyl)-1-methyl-1H-pyrrolo[2,3-b]pyridin-6-yl)-1-oxoisoindolin-2-yl) piperidine-2,6-dione] | 10 to 100 | 20 to 40 | < 1 | > 80 | 100 to 500
CC(C)n1ccc2c(CN3CCCC3)cc(-c3ccc4c(c3)CN(C3CCC(=O)NC3=O)C4=O)nc21 (stereo not shown) [Example 299, 3-(5-(1-isopropyl-4-(pyrrolidin-1-ylmethyl)-1H-pyrrolo[2,3-b]pyridin-6-yl)-1-oxoisoindolin-2-yl) piperidine-2,6-dione] | > 10000 | < 20 | 1 to 10 | 60 to 80 | 500 to 1000
Cn1ccc2c(CN3CC4(CCOCC4)C3)cc(-c3ccc4c(c3)CN(C3CCC(=O)NC3=O)C4=O)nc21 (stereo not shown) [Example 100, 3-(5-(4-((7-oxa-2-azaspiro[3.5]nonan-2-yl)methyl)-1-methyl-1H-pyrrolo[2,3-b]pyridin-6-yl)-1-oxoisoindolin-2-yl) piperidine-2,6-dione] | 10 to 100 | 20 to 40 | < 1 | > 80 | 100 to 500
O=C1CCC(N2Cc3cc(-c4cc(CN5CC(CO)C5)c5ccn(C6COC6)c5n4)ccc3C2=O)C(=O)N1 (stereo not shown) [Example 165, 3-(5-(4-((3-(hydroxymethyl)azetidin-1-yl)methyl)-1-(oxetan-3-yl)-1H-pyrrolo[2,3-b]pyridin-6-yl)-1-oxoisoindolin-2-yl) piperidine-2,6-dione] | > 10000 | < 20 | 10 to 100 | 60 to 80 | 100 to 500
O=C1CCC(N2Cc3cc(-c4cc(CN5CCCC5)c5ncn(C6CS(=O)(=O)C6)c5n4)ccc3C2=O)C(=O)N1 (stereo not shown) [Example 225, 3-(5-(3-(1,1-dioxidothietan-3-yl)-7-(pyrrolidin-1-ylmethyl)-3H-imidazo[4,5-b]pyridin-5-yl)-1-oxoisoindolin-2-yl) piperidine-2,6-dione] | > 10000 | < 20 | < 1 | 20 to 40 | 500 to 1000
O=C1CCC(N2Cc3cc(-c4cc(CN5CCCC5)c5c(ccn5CCO)n4)ccc3C2=O)C(=O)N1 (stereo not shown) [Example 175, 3-(5-(1-(2-hydroxyethyl)-7-(pyrrolidin-1-ylmethyl)-1H-pyrrolo[3,2-b]pyridin-5-yl)-1-oxoisoindolin-2-yl) piperidine-2,6-dione] | > 10000 | < 20 | 10 to 100 | 60 to 80 | 1000 to 5000
Cn1ccc2c(CN3CCC(C(F)(F)F)CC3)cc(-c3ccc4c(c3)CN(C3CCC(=O)NC3=O)C4=O)nc21 (stereo not shown) [Example 90, 3-(5-(1-methyl-4-((4-(trifluoromethyl)piperidin-1-yl)methyl)-1H-pyrrolo[2,3-b]pyridin-6-yl)-1-oxoisoindolin-2-yl) piperidine-2,6-dione] | 10 to 100 | 20 to 40 | 1 to 10 | > 80 | 100 to 500
O=C1CCC(N2Cc3cc(-c4cc(CN5CCCC5)c5ccn(CCOCc6ccccc6)c5n4)ccc3C2=O)C(=O)N1 (stereo not shown) [Example 130, 3-(5-(1-(2-(benzyloxy)ethyl)-4-(pyrrolidin-1-ylmethyl)-1H-pyrrolo[2,3-b]pyridin-6-yl)-1-oxoisoindolin-2-yl) piperidine-2,6-dione] | > 10000 | < 20 | 1 to 10 | 40 to 60 | 100 to 500
O=C1CCC(N2Cc3cc(-c4cc(CN5CCCC5)c5ccn(C6CCCC6)c5n4)ccc3C2=O)C(=O)N1 (stereo not shown) [Example 154, 3-(5-(1-cyclopentyl-4-(pyrrolidin-1-ylmethyl)-1H-pyrrolo[2,3-b]pyridin-6-yl)-1-oxoisoindolin-2-yl) piperidine-2,6-dione] | > 10000 | < 20 | 1 to 10 | 60 to 80 | 500 to 1000
Cc1nc2c(CN3CCCC3)cc(-c3ccc4c(c3)CN(C3CCC(=O)NC3=O)C4=O)nc2o1 (stereo not shown) [Example 197, 3-(5-(2-methyl-7-(pyrrolidin-1-ylmethyl)oxazolo [5,4-b]pyridin-5-yl)-1-oxoisoindolin-2-yl) piperidine-2,6-dione] | > 10000 | < 20 | 1 to 10 | 60 to 80 | 500 to 1000
